Test results from ChEMBL document CHEMBL3885881, “DrugMatrix”.

Species on record: Rattus norvegicus
Format: toxicity, organism-based, Sprague-Dawley
Details: in vivo, po, 24 h, route oral GAVAGE, time 1 day, […]; for ABSOLUTE BASOPHIL / ABSOLUTE EOSINOPHIL / ABSOLUTE LYMPHOCYTE / ABSOLUTE MONOCYTE / BASOPHIL / EOSINOPHIL / ERYTHROCYTE COUNT / HEMATOCRIT / HEMOGLOBIN / LEUKOCYTE COUNT / LYMPHOCYTE / MEAN CORPUSCULAR HEMOGLOBIN / MEAN CORPUSCULAR HEMOGLOBIN CONCENTRATION / MEAN CORPUSCULAR VOLUME / MONOCYTE / NEUTROPHIL / PLATELET COUNT: tissue Blood; for ALANINE AMINOTRANSFERASE / ALBUMIN / ALKALINE PHOSPHATASE / ASPARTATE AMINOTRANSFERASE / BLOOD UREA NITROGEN / CARBON DIOXIDE / CHLORIDE / CHOLESTEROL / CREATINE PHOSPHOKINASE / CREATININE / GLUCOSE / LACTATE DEHYDROGENASE / LIPASE / PHOSPHORUS / POTASSIUM / SODIUM / TOTAL BILIRUBIN / TOTAL PROTEIN / URIC ACID: tissue Plasma
[1] = 0 mg/kg, vehicle control, dose level Control

Description: DrugMatrix - Regimen: Single

With C=CCN [ALLYLAMINE] the ABSOLUTE BASOPHIL [1] was 46.7 cells/µL, the ABSOLUTE EOSINOPHIL [1] was 130 cells/µL and the ABSOLUTE LYMPHOCYTE [1] was 8720 cells/µL. For the same compound, the ABSOLUTE MONOCYTE [1] was 140 cells/µL, the BASOPHIL [1] was 0.43% and the EOSINOPHIL [1] was 1.33%. The “ERYTHROCYTE COUNT” value [1] was 6.45 x10E6/uL, the HEMATOCRIT [1] was 42.2% and the HEMOGLOBIN [1] was 13.33 G/DL. The “LEUKOCYTE COUNT” value [1] was 10.59 x10E3/uL, the LYMPHOCYTE [1] was 82.13% and the “MEAN CORPUSCULAR HEMOGLOBIN” value [1] was 20.67 pg. For the same compound, the “MEAN CORPUSCULAR HEMOGLOBIN CONCENTRATION” value [1] was 31.6 G/DL, the “MEAN CORPUSCULAR VOLUME” value [1] was 65.4 fL and the MONOCYTE [1] was 1.37%. For the same compound, the NEUTROPHIL [1] was 14.3%, the “PLATELET COUNT” value [1] was 1048.67 x10E3/uL and the “ALANINE AMINOTRANSFERASE” value [1] was 44 u/L. For the same compound, the ALBUMIN [1] was 3.93 G/DL, the “ALKALINE PHOSPHATASE” value [1] was 551.33 u/L and the “ASPARTATE AMINOTRANSFERASE” value [1] was 97 u/L. For the same compound, the “BLOOD UREA NITROGEN” value [1] was 13.5 mg/dL, the “CARBON DIOXIDE” value [1] was 37.33 mmol/L and the CHLORIDE [1] was 102.33 MEQ/L. For the same compound, the CHOLESTEROL [1] was 83 mg/dL, the “CREATINE PHOSPHOKINASE” value [1] was 365.33 u/L and the CREATININE [1] was 0.4 mg/dL. For the same compound, the GLUCOSE [1] was 189 mg/dL, the “LACTATE DEHYDROGENASE” value [1] was 170.33 u/L and the LIPASE [1] was 10.67 u/L. For the same compound, the PHOSPHORUS [1] was 11.53 mg/dL, the POTASSIUM [1] was 5.63 MEQ/L and the SODIUM [1] was 144.33 MEQ/L. The “TOTAL BILIRUBIN” value [1] was 0.4 mg/dL, the “TOTAL PROTEIN” value [1] was 6.27 G/DL and the “URIC ACID” value [1] was 0.87 mg/dL. The ABSOLUTE BASOPHIL (40 mg/kg, dose level Low) was 26.7 cells/µL, the ABSOLUTE EOSINOPHIL (40 mg/kg, dose level Low) was 160 cells/µL and the ABSOLUTE LYMPHOCYTE (40 mg/kg, dose level Low) was 6420 cells/µL. For the same compound, the ABSOLUTE MONOCYTE (40 mg/kg, dose level Low) was 190 cells/µL, the BASOPHIL (40 mg/kg, dose level Low) was 0.3% and the EOSINOPHIL (40 mg/kg, dose level Low) was 1.9%. For the same compound, the “ERYTHROCYTE COUNT” value (40 mg/kg, dose level Low) was 7.01 x10E6/uL, the HEMATOCRIT (40 mg/kg, dose level Low) was 45.2% and the HEMOGLOBIN (40 mg/kg, dose level Low) was 14.3 G/DL. The “LEUKOCYTE COUNT” value (40 mg/kg, dose level Low) was 8.6 x10E3/uL, the LYMPHOCYTE (40 mg/kg, dose level Low) was 74.17% and the “MEAN CORPUSCULAR HEMOGLOBIN” value (40 mg/kg, dose level Low) was 20.43 pg. For the same compound, the “MEAN CORPUSCULAR HEMOGLOBIN CONCENTRATION” value (40 mg/kg, dose level Low) was 31.67 G/DL, the “MEAN CORPUSCULAR VOLUME” value (40 mg/kg, dose level Low) was 64.6 fL and the MONOCYTE (40 mg/kg, dose level Low) was 2.23%. For the same compound, the NEUTROPHIL (40 mg/kg, dose level Low) was 20.97%, the “PLATELET COUNT” value (40 mg/kg, dose level Low) was 1314 x10E3/uL and the “ALANINE AMINOTRANSFERASE” value (40 mg/kg, dose level Low) was 38 u/L. For the same compound, the ALBUMIN (40 mg/kg, dose level Low) was 3.9 G/DL, the “ALKALINE PHOSPHATASE” value (40 mg/kg, dose level Low) was 499 u/L and the “ASPARTATE AMINOTRANSFERASE” value (40 mg/kg, dose level Low) was 72.33 u/L. For the same compound, the “BLOOD UREA NITROGEN” value (40 mg/kg, dose level Low) was 10 mg/dL, the “CARBON DIOXIDE” value (40 mg/kg, dose level Low) was 38.67 mmol/L and the CHLORIDE (40 mg/kg, dose level Low) was 104 MEQ/L. The CHOLESTEROL (40 mg/kg, dose level Low) was 72.67 mg/dL, the “CREATINE PHOSPHOKINASE” value (40 mg/kg, dose level Low) was 242.67 u/L and the CREATININE (40 mg/kg, dose level Low) was 0.47 mg/dL. The GLUCOSE (40 mg/kg, dose level Low) was 171.33 mg/dL, the “LACTATE DEHYDROGENASE” value (40 mg/kg, dose level Low) was 92.33 u/L and the LIPASE (40 mg/kg, dose level Low) was 15.33 u/L. For the same compound, the PHOSPHORUS (40 mg/kg, dose level Low) was 11.83 mg/dL, the POTASSIUM (40 mg/kg, dose level Low) was 5.73 MEQ/L and the SODIUM (40 mg/kg, dose level Low) was 145 MEQ/L. For the same compound, the “TOTAL BILIRUBIN” value (40 mg/kg, dose level Low) was 0.3 mg/dL, the “TOTAL PROTEIN” value (40 mg/kg, dose level Low) was 6.27 G/DL and the “URIC ACID” value (40 mg/kg, dose level Low) was 1.3 mg/dL.
